Test results taken from patent US11564920B2, “5-heteroaryl-1H-pyrazol-3-amine derivative” (Sumitomo Pharma Co., Ltd., priority 2020, dated 2023).

Key:
[1] = target: CHK1 (Homo sapiens (Human), UniProt O14757); experiment: CHK1 inhibitory activity test (IMAP TR-FRET); assay type: biochemical; details: for effect of suppressing CHK1 activity (in words): compared with prexasertib; for inhibition at 0.0001 µM: read-out: CHK1 inhibition % at 0.1 nM
Procedure: IMAP TR-FRET Screening Express Kit (R8160) was obtained from Molecular Devices. […] FAM-PKAtide (R7255, Molecular Devices) and FAM-Phospho-PKAtide (R7304, Molecular Devices) were admixed after dilution, and calibration standard systems for phosphorylation levels from 0 to 100% were created. 5 μL of a compound dissolved in a 0.4% DMSO solution was added to a 384 well plate. A compound study group to which 5 μL of each of CHK1, CHK1tide, and ATP was added, and a standard group to which 20 μL of standard was added were created, and subjected to a kinase reaction for 3 hours at 30° C. Subsequently, 60 μL of Binding Reagent (80% Buffer A, 20% Buffer B, 1:600 Binding Reagent, 1:400 Tb-Donor) was added for a binding reaction for 2 hours at room temperature.

[2] = tested on: ES-2 cells; experiment: Cell growth suppression experiment; assay type: cell-based; details: for IC50: Homo sapiens, 48 h, cultured for 2 days, read-out: IC50 (cell growth suppression, ranking); for cell growth suppression effect (in words): compared with prexasertib
Procedure: ES-2 cells were obtained from the American Type Culture Collection (ATCC). These cells were cultured at 37° C. in the presence of 5% CO2 in a 10% fetal bovine serum, […] penicillin/streptomycin containing McCoy's 5a medium.
500 cells were seeded for each well in a 384-well plate, and the evaluated compound was added so that the final concentration of DMSO would be 0.1% to culture the cells for 2 days. After completion of the culture, the cell viability rate was calculated using CellTiter-Glo® 3D Reagent (Promega, G968B).

CHK1, sequence (O14757 whole entry): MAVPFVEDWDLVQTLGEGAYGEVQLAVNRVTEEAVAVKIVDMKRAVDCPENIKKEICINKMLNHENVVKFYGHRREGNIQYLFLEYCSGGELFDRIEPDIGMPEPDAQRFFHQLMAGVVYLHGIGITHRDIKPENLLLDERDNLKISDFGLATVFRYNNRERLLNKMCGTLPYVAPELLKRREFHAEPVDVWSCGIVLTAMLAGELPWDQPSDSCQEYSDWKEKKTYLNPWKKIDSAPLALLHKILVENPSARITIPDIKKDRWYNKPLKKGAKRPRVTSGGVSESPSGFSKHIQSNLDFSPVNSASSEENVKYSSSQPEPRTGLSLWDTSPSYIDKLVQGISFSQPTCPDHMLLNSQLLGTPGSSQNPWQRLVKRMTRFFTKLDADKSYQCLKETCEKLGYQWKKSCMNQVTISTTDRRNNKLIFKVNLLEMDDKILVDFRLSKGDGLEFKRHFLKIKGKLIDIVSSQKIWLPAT

Compound	effect of suppressing CHK1 activity (in words) [1]	inhibition at 0.0001 µM [1]	IC50 [2]	cell growth suppression effect (in words) [2]	IC50 [1]
COc1cc(Cl)nc(OCCCN)c1-c1cc(Nc2cnc(C#N)cn2)n[nH]1 [Example 2, 5-({5-[2-(3-aminopropoxy)-6-chloro-4-methoxypyridin-3-yl]-1H-pyrazol-3-yl}amino)pyrazine-2-carbonitrile]	more potent effect of suppressing CHK1 activity than prexasertib	31%	30 to 100 nM		
COc1cncc(OCCCN)c1-c1cc(Nc2cnc(C#N)cn2)n[nH]1 [Example 3, 5-({5-[3-(3-aminopropoxy)-5-methoxypyridin-4-yl]-1H-pyrazol-3-yl}amino)pyrazine-2-carbonitrile]	more potent effect of suppressing CHK1 activity than prexasertib	28%	< 30 nM	excellent cell growth suppression effect that is equivalent to that of prexasertib	
COc1nccc(OCCCN)c1-c1cc(Nc2cnc(C#N)cn2)n[nH]1 [Example 4, 5-({5-[4-(3-aminopropoxy)-2-methoxypyridin-3-yl]-1H-pyrazol-3-yl}amino)pyrazine-2-carbonitrile]	more potent effect of suppressing CHK1 activity than prexasertib	25%	< 30 nM	excellent cell growth suppression effect that is equivalent to that of prexasertib	
COc1cncc(OCC2(F)CNC2)c1-c1cc(Nc2cnc(C#N)cn2)n[nH]1 [Example 5, 5-[(5-{3-[(3-fluoroazetidin-3-yl)methoxy]-5-methoxypyridin-4-yl}-1H-pyrazol-3-yl)amino]pyrazine-2-carbonitrile]		15%	< 30 nM		
COc1nccc(OCC2(C)CNC2)c1-c1cc(Nc2cnc(C#N)cn2)n[nH]1 [Example 6, 5-[(5-{2-methoxy-4-[(3-methylazetidin-3-yl)methoxy]pyridin-3-yl}-1H-pyrazol-3-yl)amino]pyrazine-2-carbonitrile]	more potent effect of suppressing CHK1 activity than prexasertib	15%	< 30 nM	excellent cell growth suppression effect that is equivalent to that of prexasertib	
COc1nccc(OCC2(O)CNC2)c1-c1cc(Nc2cnc(C#N)cn2)n[nH]1 [Example 7, 5-[(5-{4-[(3-hydroxyazetidin-3-yl)methoxy]-2-methoxypyridin-3-yl}-1H-pyrazol-3-yl)amino]pyrazine-2-carbonitrile]	more potent effect of suppressing CHK1 activity than prexasertib	29%	30 to 100 nM		
COc1cncc(OCC[C@@H](C)N)c1-c1cc(Nc2cnc(C#N)cn2)n[nH]1 [Example 9, 5-[(5-{3-[(3R)-3-aminobutoxy]-5-methoxypyridin-4-yl}-1H-pyrazol-3-yl)amino]pyrazine-2-carbonitrile]	more potent effect of suppressing CHK1 activity than prexasertib	24%	30 to 100 nM		
COc1cncc(OCC[C@H](C)N)c1-c1cc(Nc2cnc(C#N)cn2)n[nH]1 [Example 10, 5-[(5-{3-[(3S)-3-aminobutoxy]-5-methoxypyridin-4-yl}-1H-pyrazol-3-yl)amino]pyrazine-2-carbonitrile]	more potent effect of suppressing CHK1 activity than prexasertib	20%	30 to 100 nM		
COc1cncc(OCC2(CN)CC2)c1-c1cc(Nc2cnc(C#N)cn2)n[nH]1 [Example 11, 5-{[5-(3-{[1-(aminomethyl)cyclopropyl]methoxy}-5-methoxypyridin-4-yl)-1H-pyrazol-3-yl]amino}pyrazine-2-carbonitrile]	more potent effect of suppressing CHK1 activity than prexasertib	35%	< 30 nM	excellent cell growth suppression effect that is equivalent to that of prexasertib	
COc1cncc(OC[C@@H](O)CN)c1-c1cc(Nc2cnc(C#N)cn2)n[nH]1 [Example 14, 5-[(5-{3-[(2S)-3-amino-2-hydroxypropoxy]-5-methoxypyridin-4-yl}-1H-pyrazol-3-yl)amino]pyrazine-2-carbonitrile]	more potent effect of suppressing CHK1 activity than prexasertib	30%	300 to 1000 nM		
COc1ccnc(OCCCN)c1-c1cc(Nc2cnc(Cl)cn2)n[nH]1 [Example 15, N-{5-[2-(3-aminopropoxy)-4-methoxypyridin-3-yl]-1H-pyrazol-3-yl}-5-chloropyrazin-2-amine]	more potent effect of suppressing CHK1 activity than prexasertib	29%	< 30 nM	excellent cell growth suppression effect that is equivalent to that of prexasertib	
COc1ncnc(OCCCN)c1-c1cc(Nc2cnc(C#N)cn2)n[nH]1 [Example 17, 5-({5-[4-(3-aminopropoxy)-6-methoxypyrimidin-5-yl]-1H-pyrazol-3-yl}amino)pyrazine-2-carbonitrile]	more potent effect of suppressing CHK1 activity than prexasertib	24%	< 30 nM	excellent cell growth suppression effect that is equivalent to that of prexasertib	0.3 nM
COc1cncc(OCC2CNC2)c1-c1cc(Nc2cnc(C#N)cn2)n[nH]1 [Example 18, 5-({5-[3-(azetidin-3-yl)methoxy-5-methoxypyridin-4-yl]-1H-pyrazol-3-yl}amino)pyrazine-2-carbonitrile]	more potent effect of suppressing CHK1 activity than prexasertib	< 5%	30 to 100 nM		
COc1cncc(O[C@@H]2CCC[C@H](N)C2)c1-c1cc(Nc2cnc(C#N)cn2)n[nH]1 [Example 19, 5-{[5-(3-{[(1R,3S)-3-aminocyclohexyl]oxy}-5-methoxypyridin-4-yl)-1H-pyrazol-3-yl]amino}pyrazine-2-carbonitrile]	more potent effect of suppressing CHK1 activity than prexasertib	20%	< 30 nM	excellent cell growth suppression effect that is equivalent to that of prexasertib	
COc1cncc(OC[C@H]2CCNC2)c1-c1cc(Nc2cnc(C#N)cn2)n[nH]1 [Example 21, (S)-5-[(5-{3-methoxy-[5-(pyrrolidin-3-yl)methoxy]pyridin-4-yl}-1H-pyrazol-3-yl)amino]pyrazine-2-carbonitrile]	more potent effect of suppressing CHK1 activity than prexasertib	15%	< 30 nM	excellent cell growth suppression effect that is equivalent to that of prexasertib	
COc1ncnc(OCC2(CN)CC2)c1-c1cc(Nc2cnc(C#N)cn2)n[nH]1 [Example 23, 5-{[5-(4-{[1-(aminomethyl)cyclopropyl]methoxy}-6-methoxypyrimidin-yl)-1H-pyrazol-3-yl]amino}pyrazine-2-carbonitrile]		< 5%	< 30 nM		
N#Cc1cnc(Nc2cc(-c3c(OCF)cncc3OCCCN)[nH]n2)cn1 [Example 24, 5-({5-[3-(3-aminopropoxy)-5-(fluoromethoxy)pyridin-4-yl]-1H-pyrazol-3-yl}amino)pyrazine-2-carbonitrile]	more potent effect of suppressing CHK1 activity than prexasertib	23%	300 to 1000 nM		
COc1cncc(OCC2(C)CNC2)c1-c1cc(Nc2cnc(C#N)cn2)n[nH]1 [Example 25, 5-[(5-{3-methoxy-5-[(3-methylazetidin-3-yl)methoxy]pyridin-4-yl}-1H-pyrazol-3-yl)amino]pyrazine-2-carbonitrile]		< 5%	< 30 nM	excellent cell growth suppression effect that is equivalent to that of prexasertib	
COc1cncc(OCC2(C(F)F)CNC2)c1-c1cc(Nc2cnc(C#N)cn2)n[nH]1 [Example 26, 5-{[5-(3-{[3-(difluoromethyl)azetidin-3-yl]methoxy}-5-methoxypyridin-4-yl)-1H-pyrazol-3-yl]amino}pyrazine-2-carbo nitrile]	more potent effect of suppressing CHK1 activity than prexasertib	42%	< 30 nM	excellent cell growth suppression effect that is equivalent to that of prexasertib	
COc1cncc(OC[C@@H](C)CN)c1-c1cc(Nc2cnc(C#N)cn2)n[nH]1 [Example 27]		< 5%	< 30 nM		
COc1cncc(O[C@@H]2CC[C@@H](N)C2)c1-c1cc(Nc2cnc(C#N)cn2)n[nH]1 [Example 32, 5-{[5-(3-{[(1R,3R)-3-aminocyclopentyl]oxy}-5-methoxypyridin-4-yl)-1H-pyrazol-3-yl]amino}pyrazine-2-carbonitrile]			< 30 nM	excellent cell growth suppression effect that is equivalent to that of prexasertib	
